Molecular target: T1, human capsaicin receptor (Homo sapiens, UniProt Q8NER1)
T1 construct: expressed in transfected cells
Assay: Calcium mobilization assay, determination of antagonist activity (Example 6)
Format: cell-based
Details: Table III; assay provided in Example 6; cells expressing human capsaicin receptor, capsaicin at EC50
Protocol: A cDNA encoding full length human capsaicin receptor (SEQ ID NO:1, 2 or 3 of U.S. Pat. No. 6,482,611) is subcloned in the plasmid pBK-CMV (Stratagene, La Jolla, Calif.) for recombinant expression in mammalian cells.
Human embryonic kidney (HEK293) cells are transfected with the pBK-CMV expression construct encoding the full length human capsaicin receptor using standard methods. The transfected cells are selected over two weeks in media containing G418 (400 μg/ml) to obtain a pool of stably transfected cells. Independent clones are isolated from this pool by limiting dilution to obtain clonal stable cell lines for use in subsequent experiments.
Cells transfected with expression plasmids (as described in Example 4) and thereby expressing human capsaicin receptor are seeded and grown to 70-90% confluency in FALCON black-walled, clear-bottomed 96-well plates (#3904, BECTON-DICKINSON, Franklin Lakes, N.J.). The culture medium is emptied from the 96 well plates and FLUO-3 AM calcium sensitive dye (Molecular Probes, Eugene, Oreg.) is added to each well (dye solution: 1 mg FLUO-3 AM, 440 μL DMSO and 440 μl 20% pluronic acid in DMSO, diluted 1:250 in Krebs-Ringer HEPES (KRH) buffer (25 mM HEPES, […], 0.96 mM NaH2PO4, 1 mM MgSO4, 2 mM CaCl2, 5 mM glucose, 1 mM probenecid, pH 7.4), 50 μl diluted solution per well). Plates are covered with aluminum foil and incubated at 37° C. for 1-2 hours in an environment containing 5% CO2. After the incubation, the dye is emptied from the plates, and the cells are washed once with KRH buffer, and resuspended in KRH buffer.
To measure the ability of a test compound to agonize or antagonize a calcium mobilization response in cells expressing capsaicin receptors to capsaicin or other vanilloid agonist, the EC50 of the agonist capsaicin is first determined. An additional 20 μl of KRH buffer and 1 μl DMSO is added to each well of cells, prepared as described above. 100 μl capsaicin in KRH buffer is automatically transferred by the FLIPR instrument to each well. Capsaicin-induced calcium mobilization is monitored using either FLUOROSKAN ASCENT (Labsystems; Franklin, Mass.) or FLIPR (fluorometric imaging plate reader system; Molecular Devices, Sunnyvale, Calif.) instruments. Data obtained between 30 and 60 seconds after agonist application are used to generate an 8-point concentration response curve, with final capsaicin concentrations of 1 nM to 3 μM. KALEIDAGRAPH software (Synergy Software, Reading, Pa.) is used to fit the data to the equation: […]
Test compounds are dissolved in DMSO, diluted in 20 μl KRH buffer so that the final concentration of test compounds in the assay well is between […] and 5 μM, and added to cells prepared as described above. The 96 well plates containing prepared cells and test compounds are incubated in the dark at room temperature for 0.5 to 6 hours. It is important that the incubation not continue beyond 6 hours. Just prior to determining the fluorescence response, 100 μl capsaicin in KRH buffer at twice the EC50 concentration determined as described above is automatically added by the FLIPR instrument to each well of the 96 well plate for a final sample volume of 200 μl and a final capsaicin concentration equal to the EC50. The final concentration of test compounds in the assay wells is between 1 μM and 5 μM. […] The concentration of antagonist required to provide a 50% decrease, relative to the response observed in the presence of capsaicin and without antagonist, is the IC50 for the antagonist, and is preferably below 1 micromolar, 100 nanomolar, 10 nanomolar or 1 nanomolar.

T1 sequence (Q8NER1 whole entry): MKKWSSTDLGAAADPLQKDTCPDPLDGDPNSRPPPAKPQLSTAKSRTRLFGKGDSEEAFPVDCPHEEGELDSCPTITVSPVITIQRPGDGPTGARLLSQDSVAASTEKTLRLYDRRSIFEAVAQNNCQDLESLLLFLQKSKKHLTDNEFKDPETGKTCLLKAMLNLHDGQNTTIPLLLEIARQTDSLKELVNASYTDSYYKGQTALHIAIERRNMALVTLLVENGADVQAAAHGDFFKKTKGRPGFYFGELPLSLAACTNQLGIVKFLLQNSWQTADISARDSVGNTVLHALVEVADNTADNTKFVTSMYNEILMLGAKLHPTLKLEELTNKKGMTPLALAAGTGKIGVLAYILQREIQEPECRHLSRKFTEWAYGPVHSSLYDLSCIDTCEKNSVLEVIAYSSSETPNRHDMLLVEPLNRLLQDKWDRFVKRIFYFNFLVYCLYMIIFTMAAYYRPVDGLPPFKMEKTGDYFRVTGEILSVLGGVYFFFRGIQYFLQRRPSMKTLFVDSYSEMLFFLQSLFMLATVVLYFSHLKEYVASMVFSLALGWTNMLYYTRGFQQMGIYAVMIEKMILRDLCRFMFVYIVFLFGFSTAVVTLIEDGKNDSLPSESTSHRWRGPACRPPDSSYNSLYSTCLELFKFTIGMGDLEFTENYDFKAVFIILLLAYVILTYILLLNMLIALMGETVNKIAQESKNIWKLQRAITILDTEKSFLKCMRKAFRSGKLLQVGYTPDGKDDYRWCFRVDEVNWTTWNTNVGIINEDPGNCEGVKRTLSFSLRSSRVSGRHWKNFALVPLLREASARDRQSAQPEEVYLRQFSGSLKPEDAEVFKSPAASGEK

C=CCNc1cc(C(F)(F)F)c(-c2cnc3c(Nc4ccc(C(F)(F)F)cn4)ccnc3n2)nn1 [Compound 152, 3-[6-(allylamino)-4-(trifluoromethyl)pyridazin-3-yl]-N-[5-(trifluoromethyl)pyridin-2-yl]pyrido[2,3-b]pyrazin-8-amine]
IC50: < 1000 nM

C=CCN1CCN(c2cc(C(F)(F)F)c(-c3cnc4c(Nc5ccc(C(F)(F)F)cn5)ccnc4n3)nn2)CC1 [Compound 86, 3-[6-(4-allylpiperazin-1-yl)-4-(trifluoromethyl)pyridazin-3-yl]-N-[5-(trifluoromethyl)pyridin-2-yl]pyrido[2,3-b]pyrazin-8-amine]
IC50: < 1000 nM

CN(C)C(=O)CN(C)c1cc(C(F)(F)F)c(-c2cnc3c(Nc4ccc(C(F)(F)F)cn4)ccnc3n2)nn1 [Compound 59, N,N,N2-trimethyl-N2-[5-(trifluoromethyl)-6-(8-{[5-(trifluoromethyl)pyridin-2-yl]amino}pyrido[2,3-b]pyrazin-3-yl)pyridazin-3-yl]glycinamide]
IC50: < 1000 nM

CC(CN(C)C)Nc1cc(C(F)(F)F)c(-c2cnc3c(Nc4ccc(C(F)(F)F)cn4)ccnc3n2)nn1 (stereo not shown) [Compound 82, N1,N1-dimethyl-N2-[5-(trifluoromethyl)-6-(8-{[5-(trifluoromethyl)pyridin-2-yl]amino}pyrido[2,3-b]pyrazin-3-yl)pyridazin-3-yl]propane-1,2-diamine]
IC50: < 1000 nM

CNC(=O)CN(C)c1cc(C(F)(F)F)c(-c2cnc3c(Nc4ccc(C(F)(F)F)cn4)ccnc3n2)nn1 [Compound 58, N,N2-dimethyl-N2-[5-(trifluoromethyl)-6-(8-{[5-(trifluoromethyl)pyridin-2-yl]amino}pyrido[2,3-b]pyrazin-3-yl)pyridazin-3-yl]glycinamide]
IC50: < 1000 nM

CCN(CC)CCN(CC)c1cc(C(F)(F)F)c(-c2cnc3c(Nc4ccc(C(F)(F)F)cn4)ccnc3n2)nn1 [Compound 99, N,N,N′-triethyl-N′-[5-(trifluoromethyl)-6-(8-{[5-(trifluoromethyl)pyridin-2-yl]amino}pyrido[2,3-b]pyrazin-3-yl)pyridazin-3-yl]ethane-1,2-diamine]
IC50: < 1000 nM

OC1CCN(c2cc(C(F)(F)F)c(-c3cnc4c(Nc5ccc(C(F)(F)F)cn5)ccnc4n3)nn2)CC1 [Compound 196, 1-[5-(trifluoromethyl)-6-(8-{[5-(trifluoromethyl)pyridin-2-yl]amino}pyrido[2,3-b]pyrazin-3-yl)pyridazin-3-yl]piperidin-4-ol]
IC50: < 1000 nM

OCCCNc1cc(C(F)(F)F)c(-c2cnc3c(Nc4ccc(C(F)(F)F)cn4)ccnc3n2)nn1 [Compound 169, 3-{[5-(trifluoromethyl)-6-(8-{[5-(trifluoromethyl)pyridin-2-yl]amino}pyrido[2,3-b]pyrazin-3-yl)pyridazin-3-yl]amino}propan-1-ol]
IC50: < 1000 nM

OCCOc1cc(C(F)(F)F)c(-c2cnc3c(Nc4ccc(C(F)(F)F)cn4)ccnc3n2)nn1 [Compound 63, 2-{[5-(trifluoromethyl)-6-(8-{[5-(trifluoromethyl)pyridin-2-yl]amino}pyrido[2,3-b]pyrazin-3-yl)pyridazin-3-yl]oxy}ethanol]
IC50: < 1000 nM

CC(C)(C)Nc1cc(C(F)(F)F)c(-c2cnc3c(Nc4ccc(C(F)(F)F)cn4)ccnc3n2)nn1 [Compound 161, 3-[6-(tert-butylamino)-4-(trifluoromethyl)pyridazin-3-yl]-N-[5-(trifluoromethyl)pyridin-2-yl]pyrido[2,3-b]pyrazin-8-amine]
IC50: < 1000 nM

CCCCCNc1cc(C(F)(F)F)c(-c2cnc3c(Nc4ccc(C(F)(F)F)cn4)ccnc3n2)nn1 [Compound 153, 3-[6-(pentylamino)-4-(trifluoromethyl)pyridazin-3-yl]-N-[5-(trifluoromethyl)pyridin-2-yl]pyrido[2,3-b]pyrazin-8-amine]
IC50: < 1000 nM

CCN(CC)CCNc1cc(C(F)(F)F)c(-c2cnc3c(Nc4ccc(C(F)(F)F)cn4)ccnc3n2)nn1 [Compound 70, N,N-diethyl-N′-[5-(trifluoromethyl)-6-(8-{[5-(trifluoromethyl)pyridin-2-yl]amino}pyrido[2,3-b]pyrazin-3-yl)pyridazin-3-yl]ethane-1,2-diamine]
IC50: < 1000 nM

CCC(C)CNc1cc(C(F)(F)F)c(-c2cnc3c(Nc4ccc(C(F)(F)F)cn4)ccnc3n2)nn1 (stereo not shown) [Compound 154, 3-{6-[(2-methylbutyl)amino]-4-(trifluoromethyl)pyridazin-3-yl}-N-[5-(trifluoromethyl)pyridin-2-yl]pyrido[2,3-b]pyrazin-8-amine]
IC50: < 1000 nM

FC(F)(F)c1ccc(Nc2ccnc3nc(-c4nnc(N5CCCC5)cc4C(F)(F)F)cnc23)nc1 [Compound 120, 3-[6-pyrrolidin-1-yl-4-(trifluoromethyl)pyridazin-3-yl]-N-[5-(trifluoromethyl)pyridin-2-yl]pyrido[2,3-b]pyrazin-8-amine]
IC50: < 1000 nM

CCC(CO)Nc1cc(C(F)(F)F)c(-c2cnc3c(Nc4ccc(C(F)(F)F)cn4)ccnc3n2)nn1 (stereo not shown) [Compound 118, 2-{[5-(trifluoromethyl)-6-(8-{[5-(trifluoromethyl)pyridin-2-yl]amino}pyrido[2,3-b]pyrazin-3-yl)pyridazin-3-yl]amino}butan-1-ol]
IC50: < 1000 nM

CCN(CCN(C)C)c1cc(C(F)(F)F)c(-c2cnc3c(Nc4ccc(C(F)(F)F)cn4)ccnc3n2)nn1 [Compound 94, N-ethyl-N′,N′-dimethyl-N-[5-(trifluoromethyl)-6-(8-{[5-(trifluoromethyl)pyridin-2-yl]amino}pyrido[2,3-b]pyrazin-3-yl)pyridazin-3-yl]ethane-1,2-diamine]
IC50: < 1000 nM

FC(F)(F)c1ccc(Nc2ccnc3nc(-c4nnc(NCC5CCCO5)cc4C(F)(F)F)cnc23)nc1 (stereo not shown) [Compound 112, 3-{6-[(tetrahydrofuran-2-ylmethyl)amino]-4-(trifluoromethyl)pyridazin-3-yl}-N-[5-(trifluoromethyl)pyridin-2-yl]pyrido[2,3-b]pyrazin-8-amine]
IC50: < 1000 nM

OCCCCNc1cc(C(F)(F)F)c(-c2cnc3c(Nc4ccc(C(F)(F)F)cn4)ccnc3n2)nn1 [Compound 172, 4-{[5-(trifluoromethyl)-6-(8-{[5-(trifluoromethyl)pyridin-2-yl]amino}pyrido[2,3-b]pyrazin-3-yl)pyridazin-3-yl]amino}butan-1-ol]
IC50: < 1000 nM

CN1CCCC1CCNc1cc(C(F)(F)F)c(-c2cnc3c(Nc4ccc(C(F)(F)F)cn4)ccnc3n2)nn1 (stereo not shown) [Compound 72, 3-[6-{[2-(1-methylpyrrolidin-2-yl)ethyl]amino}-4-(trifluoromethyl)pyridazin-3-yl]-N-[5-(trifluoromethyl)pyridin-2-yl]pyrido[2,3-b]pyrazin-8-amine]
IC50: < 1000 nM

CCCN(CCO)c1cc(C(F)(F)F)c(-c2cnc3c(Nc4ccc(C(F)(F)F)cn4)ccnc3n2)nn1 [Compound 134, 2-{propyl[5-(trifluoromethyl)-6-(8-{[5-(trifluoromethyl)pyridin-2-yl]amino}pyrido[2,3-b]pyrazin-3-yl)pyridazin-3-yl]amino}ethanol]
IC50: < 1000 nM

CCCC(CO)Nc1cc(C(F)(F)F)c(-c2cnc3c(Nc4ccc(C(F)(F)F)cn4)ccnc3n2)nn1 (stereo not shown) [Compound 119, 2-{[5-(trifluoromethyl)-6-(8-{[5-(trifluoromethyl)pyridin-2-yl]amino}pyrido[2,3-b]pyrazin-3-yl)pyridazin-3-yl]amino}pentan-1-ol]
IC50: < 1000 nM

CN(C)C1CCCN(c2cc(C(F)(F)F)c(-c3cnc4c(Nc5ccc(C(F)(F)F)cn5)ccnc4n3)nn2)C1 (stereo not shown) [Compound 132, 3-{6-[3-(dimethylamino)piperidin-1-yl]-4-(trifluoromethyl)pyridazin-3-yl}-N-[5-(trifluoromethyl)pyridin-2-yl]pyrido[2,3-b]pyrazin-8-amine]
IC50: < 1000 nM

Source: patent US20080175794A1, “Substituted Pyridazinyl- and Pyrimidinyl-Quinolin-4-Ylamine Analogues” (NEUROGEN CORPORATION, priority 2005, published 2008)
